Measured values as given in PMC7449161, “Nonstationary Pharmacokinetics of Caspofungin in ICU Patients” (Antimicrobial Agents and Chemotherapy, 2020).
Where two headings read alike, the source gives them in different places.

Legend:
C. albicans = conditions: preclinical pharmacodynamic target; cited from earlier work
Experimental: The simulations of PTA were based on model parameters from bootstrap samples (n = 1,000) in order to include the parameter uncertainty. Predictions of AUC at steady state were performed for the standard 50-mg maintenance dose.

C. parapsilosis = conditions: preclinical pharmacodynamic target; cited from earlier work
[1] = cited from earlier work; for CL: healthy subjects
[2] = cited from earlier work
From the text: There are little data concerning the influence of extracorporeal membrane oxygenation (ECMO) on caspofungin pharmacokinetics ([9], [10]). ECMO is known to alter drug pharmacokinetics due to drug extraction during the procedure and a large volume of exogenous blood needed for ECMO circuit. The changes include increased volume of distribution and decreased clearance ([11]). The interactions between the ECMO circuit and the drug are not always easily predictable, but one of the vital drug characteristics determining circuit drug loss is the lipophilicity and protein binding ([12], [13]). Since ca ... || The changes in parameters with time require further investigation as they might be caused by a process that our study was not able to capture and describe. It could be the result of temporal changes in protein binding as caspofungin is highly protein-bound (97%) ([6]). Another possibility is nonlinearity in metabolic or distribution processes.

C. glabrata = conditions: preclinical pharmacodynamic target; cited from earlier work
[3] = Population pharmacokinetics of caspofungin in ICU patients (two-compartment nonlinear mixed-effects model); format: in vivo, human; conditions: for clearance: human, serum, iv; for typical AUC0–24: maintenance dose of 50 mg
From the text: This study was registered at ClinicalTrials.gov under ID NCT03399032. It was a prospective observational study conducted in adult critically ill patients admitted to ICU due to severe sepsis requiring broad-spectrum antibiotics with a high risk of fungal infection. Both medical and surgical patients with any type of infection (pulmonary, abdominal, urinary tract, etc.) were included. Eligible consent was obtained from each patient or his or her attendant. Allergy to caspofungin, lack of consent to participate in the study, and age below 18 or above 80 years were the exclusion criteria. Thirty-three patients were enrolled in the study. Data from three patients were excluded from analysis due to technical issue with handling the samples, which made them unsuitable for analysis and the concentrations could not be determined.
The antibiotic regimen included broad-spectrum antibacterial antibiotics plus caspofungin as empirical antifungal therapy (70 mg i.v. on the first day, and 50 mg i.v. on the consecutive days) once daily. In three patients with liver failure caspofungin doses were reduced (50 mg i.v. initial and 35 mg i.v. maintenance dose). Any site of infection was treated in the manner.
Blood samples (3 ml) were collected 0.5, 2, 4, 8, 12, and 24 h after each dose of caspofungin for three consecutive days from the standard arterial cannula. Thirty minutes after each sample collection, blood was centrifuged for 10 min at 3,000 rpm. Subsequently, the supernatant was collected and frozen. Serum caspofungin concentrations were measured with high-performance liquid chromatography (HPLC).
Plasma samples were prepared for analysis according to a previously described procedure ([3]). A Dionex chromatographic system (Dionex, Sunnyvale, CA), equipped with a P580 LPG LC-6A gradient pump, UVD340S UV-visible detector, and a Rheodyne 7725 loop injector with a sufficient volume of 20 μl was employed in this study. Chromatographic separation was achieved on a Zorbax SB C18 column (150 × 4.6 mm × 5 μm) in isocratic mode. The mobile phase consisted of 20 mM triethylammonium phosphate buffer (pH 3.0): acetonitrile-methanol (50:40:10 [vol/vol/vol]; Fluka, HPLC grade). The mobile phase flow rate was 1.0 ml/min, and caspofungin absorbance was measured at 210 nm. The analytical method was validated in terms of linearity, the limits of detection (LOD) and quantification (LOQ), precision, and accuracy. The standard curves were linear over a concentration range from 0.25 to 10.0 μg/ml with an R^2 of 0.987. The LOD and LOQ values for caspofungin were 0.08 and 0.18 μg/ml, respectively. The intra- and interday accuracies ranged from 98.1 to 102.8%, and the coefficients of variation (CVs) were between 0.8 and 3.4%.
Population nonlinear mixed-effects modeling was conducted using NONMEM software (v7.3; Icon Development Solutions, Ellicott City, MD), GNU Fortran 95 compiler (GCC 4.6.0), and Wings for NONMEM (WFN741, http://wfn.sourceforge.net). The first-order conditional estimation method with η-ε interaction was employed throughout the model-building procedure. R computing environment (R Core Team 2019) was used for data processing and visualization.
The minimum value of the NONMEM objective function (OFV), typical goodness-of-fit diagnostic plots, and the evaluation of the precision of pharmacokinetic parameters and variability estimates were used to discriminate between various models during the model-building process. For hierarchical models, the decrease in OFV of 6.62 units defining an improved fit at a P of <0.01 for one additional parameter was considered to be statistically significant. The uncertainty of final model parameters was determined by nonparametric bootstrap with 1,000 replicates. The 90% confidence intervals (90% CI) for model parameters were constructed based on bootstrap results.
During the structural model-building step, candidate one-, two-, and three-compartment models were tested to describe the pharmacokinetics of caspofungin. […]

[4] = cited from earlier work; for clearance: ICU patients
From the text: Although the CL after the first dose (0.563 liters/h, 6.7%RSE) is well within the values reported in literature, the CL after the second dose (0.737 liters/h, 6.1%RSE) is within the highest previously reported values, and the CL after the third dose (1.01 liters/h, 9.1%RSE) almost doubles compared to CL after the first dose and literature CL values.

[5] = patients with liver failure, maintenance dose of 35 mg, from individual parameters

CC[C@H](C)C[C@H](C)CCCCCCCCC(=O)N[C@H]1C[C@@H](O)[C@@H](NCCN)NC(=O)[C@@H]2[C@@H](O)CCN2C(=O)[C@H]([C@H](O)CCN)NC(=O)[C@H]([C@H](O)[C@@H](O)c2ccc(O)cc2)NC(=O)[C@@H]2C[C@@H](O)CN2C(=O)[C@H]([C@@H](C)O)NC1=O [caspofungin]
target AUC/MIC (C. albicans): 865
target AUC/MIC (C. parapsilosis): 1,185
CL ([1]; sampling for 26 weeks): 0.579 L/h
CL ([1]; sampling for 28 days): 0.631 L/h
quantifiable concentrations as long as, after administration ([1]; radioactive labeled caspofungin): 22.3 weeks
protein bound [2]: 97%
target AUC/MIC (C. glabrata): 450
decrease in exposure between doses ([3]; CL2 versus CL1): 24%
decrease in exposure between doses ([3]; CL3 versus CL1): 44%
decrease in caspofungin exposure ([3]; associated with increasing clearance with subsequent doses, ICU patients): > 20%
clearance ([3]; estimated during model building process, ICU patients, read-out: mean CL for all three occasions (converted)): 11.8 mL/min
clearance ([3]; typical clearance after first dose, 30 ICU patients, 70 mg i.v. day 1, 50 mg i.v. once daily after, HPLC-UV, final model, read-out: θCL day 1, Estimate (%RSE) (converted)): 9.38 mL/min
clearance ([3]; typical clearance after second dose, 30 ICU patients, i.v., final model, read-out: θCL day 2, Estimate (%RSE) (converted)): 12.3 mL/min
clearance ([3]; typical clearance after third dose, 30 ICU patients, i.v., final model, read-out: θCL day 3, Estimate (%RSE) (converted)): 16.8 mL/min
θQ, Estimate (%RSE) ([3]; intercompartmental clearance, 30 ICU patients, final model): 1.31 (15.7) liter/h
typical AUC0–24 ([3]; typical clearance after first dose (CL1)): 89 mg ⋅ h/liter
typical AUC0–24 ([3]; typical clearance after second dose (CL2)): 68 mg ⋅ h/liter
typical AUC0–24 ([3]; typical clearance after third dose (CL3)): 50 mg ⋅ h/liter
minimal AUC0–24 as % of the 98 mg ⋅ h/liter target ([3]; patients with liver failure, 35 mg maintenance): 23%
maximum AUC0–24 as % of the value required for efficacy ([3]; patients with liver failure, 35 mg maintenance, 98 mg ⋅ h/liter target): 62%
AUC0–24, maximum value [3, 5]: 61 mg ⋅ h/liter
AUC0–24, minimal value [3, 5]: 23 mg ⋅ h/liter
θV1 day 1, Estimate (%RSE) ([3]; volume of distribution of central compartment after first dose, 30 ICU patients, final model): 6.04 (7.0) liter
θV1 day 2, Estimate (%RSE) ([3]; volume of distribution of central compartment after second dose, 30 ICU patients, final model): 7.32 (5.3) liter
θV1 day 3, Estimate (%RSE) ([3]; volume of distribution of central compartment after third dose, 30 ICU patients, final model): 7.70 (5.3) liter
θV2, Estimate (%RSE) ([3]; volume of distribution of peripheral compartment, 30 ICU patients, final model): 5.13 (13.7) liter
mean clearance ([4]; ICU patients (Child-Pugh B score)): 0.55 L/h
clearance ([4]; day 3 of the study): 0.57 L/h
clearance ([4]; day 7 of the study): 0.54 L/h
clearance [4]: 0.66 L/h
CL, value provided in the drug label [4]: 0.72 L/h
mean clearance ([4]; patients undergoing CRRT): 0.62 L/h
mean clearance ([4]; patients with invasive aspergillosis, value for a 76-kg patient): 0.403 L/h
